Read-outs that look alike come from different tables or passages of the source.

Data on 1 molecule can be found in patent publication US20200108029A1, “METHODS AND SYSTEMS FOR TREATING OVERWEIGHT INDIVIDUALS” (LiveLight LLC, priority 2013, published 2020).

One data set has as its system patients. Description: pooled previously published phentermine clinical trials (FIG. 1A). The format is in vivo, human. The settings on record: dropouts included as having lost no net weight. An excerpt:
Studies using phentermine alone or phentermine mixed with a placebo have reported significant patient dropout rates in a typical 8-12 weeks phentermine clinical trial (Lucey et al “Chlorphentermine, A New ‘Appetite Suppressant,’ A Cross-Over Double-Blind Trial,” Ulster Med. J., 1962, pages 181-184 reports a 66% dropout rate, Kim et al., “Effects on Weight Reduction and Safety of Short-Term Phentermine Administration in Korean Obese People,” Yonsei Med J., 2006 Vol. 47, No. 5, pages 614-625 reports a 47% dropout rate, Truant reports a 66% dropout rate, Munro reports a 41% dropout rate, and Langlois et al., “A Double-Blind Clinical Evaluation of the Safety and Efficacy of Phentermine Hydrochloride (Fastin) in the Treatment of Exogenous Obesity,” Curr Ther Res Clin Exp., 1974, Vol. 16, No. 4, pages 289-296 reports a 41% dropout rate). For broad clinical adoption, the intent to treat weight loss, e.g., the average weight loss of all the patients that were enrolled in the study, is the key measure.
FIG. 1A is a table showing the results of various previously published clinical trials using phentermine.

In data set [1] the test system is patients in medical weight reduction. Particulars: Truant, cited from earlier work.
For data set [2], the system named is overweight (7) and obese (16) patients. The experiment in a line: study of customized weekly dose patterns of moderate and low dose phentermine capsules. In kind it is in vivo, human. The protocol: A study was performed including 23 overweight (7) and obese (16) patients whose average initial weight was 207 lb. Inclusion and exclusion criteria were similar to those of many published phentermine clinical trials. The patients were offered conventional dietary advice, provided meal replacements in the form of one to two commercial shakes (Usana Health Sciences, Salt Lake City, Utah), and were encouraged to exercise. Historical controls available from many published data about weight loss that involved dietary advice, meal replacement, and encouragement to exercise were used.
During the study, each patient was prescribed a customized dose pattern level of moderate capsules of phentermine and low dose capsules of phentermine that were provided on a biweekly basis in a 7-compartment blister pack where each blister contained a daily red capsule. The patient was instructed to take the appropriate daily capsule in the morning around breakfast time. The pack was labeled “each capsule contains up to 35 mg of phentermine.” In this example, each capsule contained 35 mg, 15 mg, 10 mg, 7.5 mg or 0 mg of phentermine in addition to inert excipients. The patients received two dose pattern weekly medications strips every two weeks.
In addition to the pills, patients were given a smartphone app or access to a browser-based reporting form where they could report their daily weight, drug compliance, hunger level, exercise level, and side effects experienced. The data was fed directly to a database, which was analyzed by the physician administering the trial and their assistant.
The algorithm for treatment included the following steps:
(1) Each patient was started on a weight loss dose pattern with a midlevel weekly phentermine dose pattern level 2 as shown in FIG. 2. […]
(2) The maximum tolerated weight loss dose pattern for the patient was determined by reviewing the patient's current dose level pattern and his or her electronically reported daily hunger level and side effects such as sleeplessness. […]

A further data set deals with obesity patients. Particulars: Munro, cited from earlier work.

`CC(C)(N)Cc1ccccc1` [phentermine, α-dimethyl-β-phenylethylamine]: the “intent to treat weight loss” value with patients stood at 9.0 lb. Also, the weight lost in data set [1] (phentermine for twelve weeks except placebo on weeks 4, 8, and 12) is given as 16.6 lb; in data set [1] (phentermine for twelve weeks) it was 18.8 lb. Also, the “patients failing to complete the first 12 weeks in the program” value in data set [2] (first 12 weeks, indicates tolerability of the regimen) is listed as “None of the patients failed to complete the first 12 weeks”. For the same molecule, the “average twelve-week weight loss” value in data set [2] (hunger and weight responsive patient-specific regimen, 12 weeks, intent to treat basis) worked out at 23 lb. Further, the “reported side effects rate” value in data set [2] (once the initial dose was titrated) is listed as “Lower reported side effects rate”. Moreover, in the data set with obesity patients (12-week treatment with weeks 4 through 8 on placebo versus phentermine for all 12 weeks), the “average weight loss, intermittent versus continuous” value was “lost as much weigh on average”. In the data set with obesity patients (alternating monthly placebo/active trial, twelve weeks), the weight loss is 15 lbs.
